In patent US20260315609A1, “MIXED VASOPRESSIN RECEPTOR AGONIST-ANTAGONIST FOR TREATING END-STAGE LIVER DISEASE AND COMPLICATIONS ASSOCIATED THEREOF” (FERRING B.V., priority 2022, published 2026):
Starred links: 1 amine or outer side, 2 acyl side, 3 side chain; linkers in the order of their positions; H or OH if unused. Positions of bridges follow the written chain, without caps; N, C: chain ends. Non-standard residues stand in square brackets, D forms with d. Residues, ends and D or L forms follow the SMILES beside them. Chains are numbered I, II in the order given. *: point of attachment. isoGln = NC(=O)[C@H](CCC(=O)[*:2])N[*:1]; εLys = N[C@@H](CCCCN[*:1])C(=O)[*:2]; Dab = NCC[C@H](N)C(=O)O; PhAc = O=C(Cc1ccccc1)*

Experiments:
[1] = test system: blood lactate; test: Blood lactate in cynomolgus monkeys after SC Compound 1; type: in vivo, cynomolgus monkey; conditions: 15-360 min
Description: Blood samples (0.5 mL in EDTA) were collected from a femoral or saphenous vein before dosing and at multiple times continuing out to 480 min after administration. Lactate concentration was also measured as part of PD analysis and collected as EDTA whole blood from the pre-dose, 15-, 40-, 90-, 180-, and 360-min post-administration samples immediately after collection using a Lactate Plus (Nova Biomedical) meter. For blood sample analysis, plasma was prepared from whole blood. Subsequent bioanalysis included compound extraction followed by standard LC/MS methods to determine compound concentration in each sample.

[2] = test system: vasopressin V1a receptor; test: Pharmacodynamics (blood pressure, MAP, pulse rate, peripheral blood flow, cardiac output, urine volume) in healthy subjects; type: in vivo, human
Description: In some embodiments, MAP is calculated from measurements of systolic blood pressure and diastolic blood pressure. In some embodiments, MAP is calculated when taking into account the pressure during a single cardiac cycle. In some embodiments, MAP is ⅓ (systolic blood pressure−diastolic blood pressure)+diastolic blood pressure.
In some instances, endpoints of the study were: vital signs (e.g., supine blood pressure, pulse, and body temperature), electrocardiogram (ECG) (e.g., intervals, rhythm, and morphology), cardiac function (e.g., cardiac output using echocardiography), peripheral blood flow/tissue perfusion (e.g., by skin color), venous blood gases (e.g., lactate), urinary output, clinical chemistry, hematology, hemostasis, and urinalysis, adverse events (AEs) (e.g., type, frequency, and intensity), pharmacokinetics (e.g., AUC, AUCt, AUCτ, % Extrap AUC, Cmax, tmax, CL, Vz, t1/2, MRT, Vss, F, Ae, and CLR), and metabolite pattern in plasma and urine.

[3] = test system: CCl4-induced rat model of cirrhosis and ascites; test: CCl4-induced cirrhosis and ascites rats, cohort 3 (single IV bolus), hemodynamics and serum aldosterone; type: in vivo; conditions: 100 μg/kg IV
Description: Animals: 90 male Wistar rats (Charles River Laboratories, Espana S.A) weighing 200-220 grams at the time of receipt were subjected to a cirrhosis induction program; high dose CCl4 was administered by inhalation twice weekly (Monday and Friday) and phenobarbital (0.3 g/L) was added to drinking water. In some instances, liver damage in this model is caused by hepatotoxic CCl4 metabolites produced in the liver. In some instances, phenobarbital induction of the microsomal enzyme oxidizing system exaggerates the intensity of the hepatic necrosis. […] Animals were allowed free access to food and water throughout the study.
The study consisted of 3 treatment cohorts, as detailed in Table 10. Animals developing and maintaining ascites for 2 weeks were randomly assigned to treatment groups. Ringer Braun saline solution was used as vehicle. IV bolus were administered via femoral veins.
Cohort 3: Animals were anesthetized and the left femoral artery and vein catheterized. The femoral artery catheter was connected to a transducer for mean arterial pressure (MAP) measurements. The right jugular vein was isolated and a catheter placed in the right atrium; a thermocouple was advanced through the aortic arch via left carotid approach to monitor the intraarterial temperature and cardiac output (CO). MAP and CO were measured and recorded in a multichannel system (Powerlab). CO was measured by thermodilution following the administration of a 200 μL/animal bolus of Ringer solution (20-23° C.) into the right atrium using a spring-loaded Hamilton syringe. A midline abdominal incision (2 cm) was created and the portal vein cannulated through the ileocolic vein to measure portal pressure (PP). Constant infusion (2 mL/hr) of Ringer solution was given through the femoral vein. After 30 minutes of infusion, baseline 30 minute values for PP, MAP, CO, and systemic vascular resistance (SVR) were recorded. In the middle of the 30 minute data collection, a blood sample (0.8 mL) was obtained via the femoral artery catheter for serum aldosterone measurements. […] Five 30 minute data collections were recorded for PP, MAP, CO, and SVR over 150 minutes, with blood samples collected in the middle of each 30 minute data collection. Following blood sampling, packed cells were reconstituted with Ringer solution and reinjected over a period of 3 minutes.

CC[C@H](C)[C@@H]1NC(=O)[C@H](Cc2ccccc2)NC(=O)[C@@H](N)CSSC[C@@H](C(=O)N2CCC[C@H]2C(=O)N[C@@H](CCNC(=O)[C@@H](N)CCCCNC(=O)[C@H](CCCCNC(C)=O)NC(=O)CC[C@H](NC(=O)[C@H](CCCNC(=N)N)NC(=O)[C@@H]2CCCN2C(=O)[C@H](C)NC(=O)[C@H](CC(N)=O)NC(=O)[C@H](CCC(N)=O)NC(=O)[C@H](Cc2ccccc2)NC(=O)[C@@H](Cc2ccc(OC)cc2)NC(=O)Cc2ccccc2)C(N)=O)C(=O)NCC(N)=O)NC(=O)[C@H](CC(N)=O)NC(=O)[C@H](CCC(N)=O)NC1=O [Compound 1, Glycinamide, L-cysteinyl-L-phenylalanyl-L-isoleucyl-L-glutaminyl-L-asparaginyl-L-cysteinyl-L-prolyl-N4-(phenylacetyl-O-methyl-D-tyrosyl-L-phenylalanyl-L-glutaminyl-L-asparaginyl-L-alanyl-L-prolyl-L-arginyl-L-isoglutamyl-N5-acetyl-L-lysyl-L-ε-lysyl)-L-2,4-diaminobutyryl-, cyclic (1→6)-disulfide] (I: H-CFIQNCP[Dab]G-NH2 / II: PhAc-[dY](Me)FQNAPR[isoGln]K(Ac)[εLys]; disulfide I:1-I:6; amide I:8-II:C)
blood lactate versus pre-dose [1]: not notably increased | reduction in cardiac output, mean ([2]; 0.9 mg i.v., echocardiography): 3%-12 | individual decreases in cardiac output ([2]; any dose, i.v. and s.c., echocardiography): 20-25% | AE of moderate decreased cardiac output ([2]; i.v. 0.1 mg): One | subjects with hyperemia ([2]; i.v. 0.45 mg, 30 and 90 minutes): 1 subject | urinary volume ([2]; i.v. and s.c.): no apparent dose related trends or changes | cardiac output versus placebo ([2]; i.v., except 0.1 mg group): decreased | subjects with pallor ([2]; i.v., mainly 0.45, 0.6 and 0.9 mg): 18 subjects | cardiac output ([2]; s.c. 0.1 and 0.3 mg): slight reduction | subjects with pallor ([2]; s.c. 0.1 and 0.3 mg, after 1st dose): About 30% | Cardiac output - portal pressure ([3]; 0 min): 173 mL/min | Mean Arterial Pressure ([3]; 0 min): 79 mmHg | Systemic Vascular Resistance ([3]; 0 min): 0.49 mmHg * min/mL | Cardiac output - portal pressure ([3]; 30 min): 178 mL/min | Mean Arterial Pressure ([3]; 30 min): 84 mmHg | Portal Pressure ([3]; 30 min): 13.9 mmHg | Systemic Vascular Resistance ([3]; 30 min): 0.54 mmHg * min/mL | Cardiac output - portal pressure ([3]; 60 min): 177 mL/min | Mean Arterial Pressure ([3]; 60 min): 91 mmHg | Portal Pressure ([3]; 60 min): 12.8 mmHg | Systemic Vascular Resistance ([3]; 60 min): 0.54 mmHg * min/mL | Cardiac output - portal pressure ([3]; 90 min): 158 mL/min | Mean Arterial Pressure ([3]; 90 min): 98 mmHg | Portal Pressure ([3]; 90 min): 11.5 mmHg | Systemic Vascular Resistance ([3]; 90 min): 0.71 mmHg * min/mL | Cardiac output - portal pressure ([3]; 120 min): 140 mL/min | Mean Arterial Pressure ([3]; 120 min): 93 mmHg | Portal Pressure ([3]; 120 min): 10.6 mmHg | Systemic Vascular Resistance ([3]; 120 min): 0.72 mmHg * min/mL | Cardiac output - portal pressure ([3]; 150 min): 139 mL/min | Mean Arterial Pressure ([3]; 150 min): 92 mmHg | Portal Pressure ([3]; 150 min): 9.7 mmHg | Systemic Vascular Resistance ([3]; 150 min): 0.74 mmHg * min/mL | reduction in serum aldosterone ([3]; end of study): greater than 50% | Serum Aldosterone ([3]; end of study (vehicle 786)): 264 ng/dL
